Test results: ChEMBL document CHEMBL1250451, “Mechanistic insights into a Ca2+-dependent family of alpha-mannosidases in a human gut symbiont” (Nat Chem Biol, 2010)
Activity calls are given as the source filed them. The rule behind the calls is not given here.

Columns and labels:
Assay type in all cases: protein assay
[1] = molecular target: T1, Alpha-1,2-mannosidase (BT_2629) (Bacteroides thetaiotaomicron) (UniProt Q8A4H0); test: Activity of Bacteroides thetaiotaomicron GH92 alpha-mannosidase GH92 alpha-mannosidase 2629 assessed as mannose release at 1 mM after 16 hrs by HPLC relative to untreated control after 16 hrs by HPLC
T1 sequence (whole entry): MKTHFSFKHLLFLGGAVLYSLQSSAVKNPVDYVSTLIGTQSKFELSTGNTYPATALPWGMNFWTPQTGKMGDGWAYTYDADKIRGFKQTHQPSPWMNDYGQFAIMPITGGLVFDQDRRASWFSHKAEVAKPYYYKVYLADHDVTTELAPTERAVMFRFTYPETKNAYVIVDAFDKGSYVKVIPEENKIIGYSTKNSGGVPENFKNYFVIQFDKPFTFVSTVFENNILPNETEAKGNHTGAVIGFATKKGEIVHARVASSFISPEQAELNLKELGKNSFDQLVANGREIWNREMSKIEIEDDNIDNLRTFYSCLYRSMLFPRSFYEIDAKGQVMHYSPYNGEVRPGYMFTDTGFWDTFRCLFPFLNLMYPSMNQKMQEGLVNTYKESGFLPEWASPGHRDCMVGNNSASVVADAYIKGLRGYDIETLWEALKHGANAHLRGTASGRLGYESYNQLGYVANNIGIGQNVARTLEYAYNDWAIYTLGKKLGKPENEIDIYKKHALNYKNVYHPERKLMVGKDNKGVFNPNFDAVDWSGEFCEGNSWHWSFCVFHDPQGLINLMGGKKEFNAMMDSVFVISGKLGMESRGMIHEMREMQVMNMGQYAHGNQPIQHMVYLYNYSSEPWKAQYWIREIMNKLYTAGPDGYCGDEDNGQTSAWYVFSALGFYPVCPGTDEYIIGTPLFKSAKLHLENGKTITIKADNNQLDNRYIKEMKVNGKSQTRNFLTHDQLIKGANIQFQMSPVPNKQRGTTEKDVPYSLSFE

[2] = molecular target: T2, Alpha-1,2-mannosidase (BT_3965) (Bacteroides thetaiotaomicron) (UniProt Q8A0Q6); test: Activity of Bacteroides thetaiotaomicron GH92 alpha-mannosidase GH92 alpha-mannosidase 3965 assessed as mannose release at 1 mM after 16 hrs by HPLC relative to untreated control after 16 hrs by HPLC
T2 sequence (whole entry): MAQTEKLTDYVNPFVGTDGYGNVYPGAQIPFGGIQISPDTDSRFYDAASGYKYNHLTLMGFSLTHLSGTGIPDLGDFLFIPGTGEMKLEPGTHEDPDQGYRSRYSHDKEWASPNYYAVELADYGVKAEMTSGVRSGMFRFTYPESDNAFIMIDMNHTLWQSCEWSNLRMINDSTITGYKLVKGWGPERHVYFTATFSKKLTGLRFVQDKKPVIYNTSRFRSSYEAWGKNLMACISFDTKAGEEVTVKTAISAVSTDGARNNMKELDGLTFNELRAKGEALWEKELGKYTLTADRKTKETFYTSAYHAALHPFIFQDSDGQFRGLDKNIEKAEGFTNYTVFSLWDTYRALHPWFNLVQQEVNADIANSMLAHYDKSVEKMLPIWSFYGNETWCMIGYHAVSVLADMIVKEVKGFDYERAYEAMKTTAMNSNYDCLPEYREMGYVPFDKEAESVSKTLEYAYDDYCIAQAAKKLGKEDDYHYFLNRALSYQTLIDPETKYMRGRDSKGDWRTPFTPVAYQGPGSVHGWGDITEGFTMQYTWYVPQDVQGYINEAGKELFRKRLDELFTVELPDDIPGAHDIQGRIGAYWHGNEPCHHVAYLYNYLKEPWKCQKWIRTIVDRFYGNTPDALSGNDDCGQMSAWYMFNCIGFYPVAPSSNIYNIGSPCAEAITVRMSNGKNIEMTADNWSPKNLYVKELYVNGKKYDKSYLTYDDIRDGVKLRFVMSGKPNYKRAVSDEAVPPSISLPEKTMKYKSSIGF

[3] = molecular target: T3, Alpha-1,2-mannosidase, putative (BT_3773) (Bacteroides thetaiotaomicron) (UniProt Q8A193); test: Activity of Bacteroides thetaiotaomicron GH92 alpha-mannosidase GH92 alpha-mannosidase 3773 assessed as mannose release at 1 mM after 16 hrs by HPLC relative to untreated control after 16 hrs by HPLC
T3 sequence (whole entry): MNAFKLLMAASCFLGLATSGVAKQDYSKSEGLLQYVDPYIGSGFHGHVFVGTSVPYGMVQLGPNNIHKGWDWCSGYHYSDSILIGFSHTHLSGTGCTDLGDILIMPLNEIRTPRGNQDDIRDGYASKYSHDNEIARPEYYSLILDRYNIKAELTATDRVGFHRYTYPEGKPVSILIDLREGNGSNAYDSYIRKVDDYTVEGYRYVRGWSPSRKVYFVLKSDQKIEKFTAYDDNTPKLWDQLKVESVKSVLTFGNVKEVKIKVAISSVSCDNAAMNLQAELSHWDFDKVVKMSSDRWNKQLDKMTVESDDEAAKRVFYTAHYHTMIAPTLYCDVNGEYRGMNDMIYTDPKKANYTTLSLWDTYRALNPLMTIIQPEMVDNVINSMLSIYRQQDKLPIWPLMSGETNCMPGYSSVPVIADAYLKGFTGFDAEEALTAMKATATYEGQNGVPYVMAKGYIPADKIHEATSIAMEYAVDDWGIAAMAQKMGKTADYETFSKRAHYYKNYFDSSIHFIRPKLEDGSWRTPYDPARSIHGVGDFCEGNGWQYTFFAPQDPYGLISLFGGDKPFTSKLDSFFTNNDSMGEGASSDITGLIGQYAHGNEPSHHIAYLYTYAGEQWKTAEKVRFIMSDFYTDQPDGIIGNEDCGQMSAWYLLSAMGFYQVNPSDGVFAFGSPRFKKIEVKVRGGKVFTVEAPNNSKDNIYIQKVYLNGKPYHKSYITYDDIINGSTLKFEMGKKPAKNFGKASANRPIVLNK

Activity [1]	Activity [2] [%]	Activity [3] [%]	Compound
inactive	0.64	0.0088	OC[C@H]1O[C@H](OC[C@H]2O[C@H](O)[C@@H](O)[C@@H](O)[C@@H]2O)[C@@H](O)[C@@H](O)[C@@H]1O
inactive	100	4.7	OC[C@H]1O[C@H](O[C@H]2[C@H](O)[C@H](O)[C@@H](O)O[C@@H]2CO)[C@@H](O)[C@@H](O)[C@@H]1O
inactive	0.27	0.91	OC[C@H]1O[C@H](O[C@H]2[C@@H](O)[C@H](O)[C@@H](CO)O[C@@H]2O)[C@@H](O)[C@@H](O)[C@@H]1O
inactive	0.09	–	OC[C@H]1O[C@H](O[C@@H]2[C@H](O)[C@@H](O)O[C@H](CO)[C@H]2O)[C@@H](O)[C@@H](O)[C@@H]1O
